Data taken from patent US20050148500A1, “Dopaminergic stimulatory factor” (priority 2001, published 2005).

System: MN9D cells
Assay: Dopamine content of MN9D cells in monolayer culture after incubation with protein (HPLC)
Type: cell-based, mouse
Method: […] The MN9D cells on each plate were then collected in 10 ml of CMF, transferred to 15 ml centrifuge tubes and centrifuged at 1000×g for 5 min. The supernatant was removed and 600 μl of 0.5 N perchloric acid was added to the cell pellet which was then sonicated on ice for 10-15 s. The cell extract was centrifuged at 4000×g for 30 min and the supernatant stored at −80° C. for subsequent high pressure liquid chromatography (HPLC) analysis of MN9D cell dopamine content. The pellet was stored at −20° C. for subsequent protein analysis.
A second experiment was then conducted to determine whether this effect was due to a change in the doubling time (24 h) of the MN9D cells with increased cell production or was the result of an increase in cellular dopamine. […] Cells were removed from the plates and cell numbers determined by counting in a hematocytometer. Dopamine content was determined by HPLC analysis. […]
After this period, the MN9D cells on each plate are collected in 10 ml of CMF, transferred to 15 ml centrifuge tubes and centrifuged at 1000×g for 5 min. […] MN9D cell DA content is determined by reverse phase high pressure liquid chromatography with electrochemical detection (HPLC-ED) as previously described (Heller et al., 1993). […]

Substance: insulin growth factor II [IGF-II]
- effect on MN9D DA levels: without effect
